The text below walks through data of ChEMBL document CHEMBL1201862, “PubChem BioAssay data set” (2004).

Active and inactive are the calls of the source. Where only a bound is given, the exact number is not on record here.

By EC50 is commonly meant the concentration that produces a half-maximal response. In general, AC50 refers to the concentration giving half of the maximal activity seen. Broadly, the CC50 is the concentration that lowers cell viability or growth by half.

The target of assay [1] is T1, Short transient receptor potential channel 4 (Mus musculus, UniProt Q9QUQ5).
T1 sequence (Q9QUQ5 whole entry): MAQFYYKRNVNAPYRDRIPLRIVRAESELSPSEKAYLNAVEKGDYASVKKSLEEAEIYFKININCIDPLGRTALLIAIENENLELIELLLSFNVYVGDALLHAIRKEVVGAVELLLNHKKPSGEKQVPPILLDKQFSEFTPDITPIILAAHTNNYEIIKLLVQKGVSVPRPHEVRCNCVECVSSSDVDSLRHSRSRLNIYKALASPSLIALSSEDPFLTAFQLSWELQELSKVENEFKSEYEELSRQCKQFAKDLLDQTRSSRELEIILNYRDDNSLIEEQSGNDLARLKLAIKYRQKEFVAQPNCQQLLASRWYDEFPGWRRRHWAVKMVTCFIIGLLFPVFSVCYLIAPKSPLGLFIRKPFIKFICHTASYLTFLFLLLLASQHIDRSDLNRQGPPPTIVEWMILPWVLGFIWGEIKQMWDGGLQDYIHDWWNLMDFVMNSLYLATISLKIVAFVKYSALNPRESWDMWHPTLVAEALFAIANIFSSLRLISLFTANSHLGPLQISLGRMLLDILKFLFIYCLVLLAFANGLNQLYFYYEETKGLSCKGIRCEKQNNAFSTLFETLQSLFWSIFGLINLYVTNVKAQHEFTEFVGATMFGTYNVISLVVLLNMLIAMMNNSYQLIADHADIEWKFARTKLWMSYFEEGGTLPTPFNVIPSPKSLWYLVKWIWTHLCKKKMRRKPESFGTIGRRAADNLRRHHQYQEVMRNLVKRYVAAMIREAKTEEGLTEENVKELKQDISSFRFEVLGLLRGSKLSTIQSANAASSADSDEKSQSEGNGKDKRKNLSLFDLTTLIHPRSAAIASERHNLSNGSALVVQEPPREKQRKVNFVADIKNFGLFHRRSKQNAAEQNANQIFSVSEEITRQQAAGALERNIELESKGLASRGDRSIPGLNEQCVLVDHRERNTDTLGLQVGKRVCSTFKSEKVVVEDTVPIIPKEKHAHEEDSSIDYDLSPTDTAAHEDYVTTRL
The assay is described as follows: mouse TRPC4 channel inhibitors, dose response, cell-based, HEK293 TRPC4/mu-opioid, Fluo-4 calcium (AID 434942).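 Note: potency of inhibitors blocking the TRPC4 calcium response.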 The format is functional.

Assay [2] is described as follows: non-specific cell cytotoxicity, dose response, cytotoxicity control for PAX8 inhibitor project, plate reader, dry powder samples (AID 743021). The assay is classed as functional, cell-based.
The target in a further assay is Melanocortin receptor 4 (Homo sapiens, UniProt P32245). In words: MC4R antagonist potency on cAMP, dose response, cell-based, TR-FRET, biased antagonists (AID 602298).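 Note: antagonist potency against agonist-stimulated cAMP production.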 The assay is classed as functional. On the technique in general: In TR-FRET formats the signal depends on donor and acceptor labels being close together.
Chain of Melanocortin receptor 4 (P32245 whole entry): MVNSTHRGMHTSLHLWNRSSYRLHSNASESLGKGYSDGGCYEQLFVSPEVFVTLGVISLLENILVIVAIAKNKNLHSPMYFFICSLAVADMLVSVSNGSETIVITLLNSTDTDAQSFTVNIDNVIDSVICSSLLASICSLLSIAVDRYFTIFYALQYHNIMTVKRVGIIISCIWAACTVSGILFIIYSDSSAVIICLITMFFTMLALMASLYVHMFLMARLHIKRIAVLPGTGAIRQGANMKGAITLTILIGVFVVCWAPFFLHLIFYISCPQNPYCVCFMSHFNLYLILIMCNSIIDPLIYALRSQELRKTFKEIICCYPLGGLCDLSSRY
The subject of a further assay is BJ. In words: cytotoxicity toward BJ-TERT fibroblasts, dose response, cell-based, RAS-independent, luminescence (AID 1933). The format is functional. The note with it: Homo sapiens.
The next assay deals with T2, Caspase-3 (Homo sapiens, UniProt P42574).
T2 sequence (P42574 whole entry): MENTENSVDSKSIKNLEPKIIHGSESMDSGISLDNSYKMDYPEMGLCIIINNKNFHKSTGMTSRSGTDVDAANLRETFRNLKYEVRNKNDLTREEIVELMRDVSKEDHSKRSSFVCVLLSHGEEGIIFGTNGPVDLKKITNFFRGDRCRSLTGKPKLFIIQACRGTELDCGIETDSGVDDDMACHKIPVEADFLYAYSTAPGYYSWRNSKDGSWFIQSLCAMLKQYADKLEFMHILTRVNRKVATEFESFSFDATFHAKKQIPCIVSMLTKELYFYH
The assay is described as follows: caspase-3 inhibitors as off-family protease, SAR follow-up, selectivity assay for SENP protease inhibitor project, biochemical, luminescence, set 2 (AID 588599). The format is functional.

Another assay deals with Vero. The assay is described as follows: Vero cell cytotoxicity, cytotoxicity control for flavivirus capping enzyme inhibitors (AID 588742). The following applies: Chlorocebus sabaeus. The format is functional.
The target in assay [3] is Polyadenylate-binding protein 1 (Homo sapiens, UniProt P11940). The assay is described as follows: PABP1 MLLE–PAM2 binding inhibitor potency, dose response, biochemical, fluorescence polarization, FITC-PAM2 peptide (AID 602259). The assay is classed as functional. The note with it: read-out: IC50_Mean. (In general: Fluorescence polarisation rises when a labelled molecule tumbles more slowly, as on binding a larger partner.)
Chain of Polyadenylate-binding protein 1 (P11940 whole entry): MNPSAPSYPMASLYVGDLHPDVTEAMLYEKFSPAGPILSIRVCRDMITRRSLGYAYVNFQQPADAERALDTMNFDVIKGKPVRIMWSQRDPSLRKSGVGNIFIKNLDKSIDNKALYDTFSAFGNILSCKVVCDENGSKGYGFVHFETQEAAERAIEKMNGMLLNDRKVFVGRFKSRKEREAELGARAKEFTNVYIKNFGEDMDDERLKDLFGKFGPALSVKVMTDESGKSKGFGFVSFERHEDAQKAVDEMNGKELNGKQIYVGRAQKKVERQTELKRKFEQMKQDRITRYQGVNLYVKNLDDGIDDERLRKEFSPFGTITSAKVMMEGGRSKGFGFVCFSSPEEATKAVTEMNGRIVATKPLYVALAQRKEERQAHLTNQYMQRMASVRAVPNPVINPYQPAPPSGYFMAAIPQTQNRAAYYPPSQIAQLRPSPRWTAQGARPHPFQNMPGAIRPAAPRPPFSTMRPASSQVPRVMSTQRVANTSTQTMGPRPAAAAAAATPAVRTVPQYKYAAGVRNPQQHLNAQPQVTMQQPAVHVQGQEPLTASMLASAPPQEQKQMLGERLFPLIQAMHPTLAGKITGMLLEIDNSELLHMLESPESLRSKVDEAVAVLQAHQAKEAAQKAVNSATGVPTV

Assay [4] is described as follows: BHK-21 cell cytotoxicity, cytotoxicity control for flavivirus guanylyltransferase probe project, secondary screen (AID 624078). The format is functional.
The target of another assay is T3, Hexokinase HKDC1 (Homo sapiens, UniProt Q2TB90).
T3 sequence (Q2TB90 whole entry): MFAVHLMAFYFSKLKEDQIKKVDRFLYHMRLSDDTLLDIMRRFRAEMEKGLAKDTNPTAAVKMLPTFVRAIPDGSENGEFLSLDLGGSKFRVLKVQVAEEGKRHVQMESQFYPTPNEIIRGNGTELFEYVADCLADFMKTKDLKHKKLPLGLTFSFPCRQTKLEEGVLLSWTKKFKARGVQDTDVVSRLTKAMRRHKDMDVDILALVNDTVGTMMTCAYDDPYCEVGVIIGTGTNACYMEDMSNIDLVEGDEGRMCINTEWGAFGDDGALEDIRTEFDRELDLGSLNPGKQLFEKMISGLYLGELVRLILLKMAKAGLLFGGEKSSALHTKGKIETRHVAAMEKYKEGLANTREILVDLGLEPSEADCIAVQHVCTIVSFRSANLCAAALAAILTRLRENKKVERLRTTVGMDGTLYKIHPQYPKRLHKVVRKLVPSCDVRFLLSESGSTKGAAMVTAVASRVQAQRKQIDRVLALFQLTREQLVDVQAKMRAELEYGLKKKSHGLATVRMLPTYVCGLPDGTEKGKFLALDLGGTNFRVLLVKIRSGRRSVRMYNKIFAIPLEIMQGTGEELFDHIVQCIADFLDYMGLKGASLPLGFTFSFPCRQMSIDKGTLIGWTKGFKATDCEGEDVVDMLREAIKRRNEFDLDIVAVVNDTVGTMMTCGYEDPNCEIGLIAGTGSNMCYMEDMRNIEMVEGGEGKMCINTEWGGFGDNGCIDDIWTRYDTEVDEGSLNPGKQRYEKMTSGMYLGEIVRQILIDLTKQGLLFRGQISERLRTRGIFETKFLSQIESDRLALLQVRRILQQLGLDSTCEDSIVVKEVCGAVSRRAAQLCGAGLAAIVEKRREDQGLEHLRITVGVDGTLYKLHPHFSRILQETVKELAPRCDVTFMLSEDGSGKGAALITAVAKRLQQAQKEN
The assay is described as follows: SAR analysis of small molecule inhibitors of hexokinase domain containing I (HKDC1). [Related pubchem assays (depositor defined):AID493160, AID493190]. The assay is classed as functional.

Assay [5] concerns the target T4, Sentrin-specific protease 8 (Homo sapiens, UniProt Q96LD8).
T4 sequence (Q96LD8 whole entry): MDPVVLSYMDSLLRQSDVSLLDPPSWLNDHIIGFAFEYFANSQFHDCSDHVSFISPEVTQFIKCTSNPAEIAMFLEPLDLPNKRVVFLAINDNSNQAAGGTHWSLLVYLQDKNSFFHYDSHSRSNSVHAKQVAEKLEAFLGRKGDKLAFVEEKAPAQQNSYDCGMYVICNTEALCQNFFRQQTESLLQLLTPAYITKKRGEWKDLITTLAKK
The format is functional.

Assay [6] has as its target T4, Sentrin-specific protease 8. The format is functional. This is another data set of the same source.

On to `Cc1nn(-c2ccccc2)c(Cl)c1CN(C(=O)CCl)c1ccc(Cl)cc1`, for which the concentration giving a half-maximal response (EC50) in [1] was 237 nM (active); in the assay with BJ it was 707 nM (inconclusive). Moreover, in [2], the AC50 is 6.9 µM (active). For the same molecule, the IC50 at Melanocortin receptor 4 is > 64.6 µM (inactive).
In the case of `Oc1ccccc1/C=C/c1noc(-c2ccccc2O)n1`, the IC50 on Caspase-3 was > 99 µM (inactive). Moreover, the EC50 in “cells” is > 67.6 µM (inactive).
Consider `O=C(O)CSc1cc(NS(=O)(=O)c2ccc(Cl)cc2)c2ccccc2c1O`, for which the CC50 is 33.2 µM (active) in the assay with Vero and 7.78 µM (active) in [4]. The IC50 in [3] was > 66 µM (inactive); at Hexokinase HKDC1 it was 8.9 µM (active).
With `COc1ccccc1N1C(=O)Cc2ccccc2C1=O`, the IC50 in assay [5] was > 100 µM (inactive); in assay [6], 2.04 µM (active).
